From US20260315446A1, “ANTIFUNGAL COMPOUNDS AND USES THEREOF” (priority 2023, published 2026)

What was measured:
[1] = in vivo; cited from earlier work
[2] = system: IL-2 expression in primary mouse CD4+ T cells (mammalian calcineurin); conditions: previous studies; cited from earlier work
C. neoformans strain H99 [3] = experiment: Murine cryptococcal infection, spleen fungal burden (Example 3); type: in vivo, Cryptococcus neoformans in A/J mice; conditions: 14 days; fluconazole 6 mg/kg, JH-FK-08 40 mg/kg, i.p. twice per day
Experimental: (§1) In vivo antifungal activity and therapeutic benefit were assayed by investigating the impact of the FK520 analog on organ fungal burden during cryptococcosis. Specifically, the in vivo efficacy of JH-FK-08 on fungal burden was assessed using A/J female mice. Immunodeficient A/J mice were selected in part due to their defect in complement component five and their susceptibility to cryptococcal infection. Treatment groups included vehicle of 10% Kolliphor: ethanol (1:1) in phosphate-buffered saline (PBS), 6 mg/kg fluconazole, 40 mg/kg JH-FK-08, or the fluconazole and JH-FK-08 combination, all given via intraperitoneal (i.p.) injection twice per day beginning at 4 hours post infection. […] Mice were intranasally infected with C. neoformans strain H99, and fungal burden in the lung, spleen, and brain was assessed after 14 days of treatment.
(§2) C. neoformans inoculum was prepared by growing a 5-mL overnight YPD culture spinning in a tissue culture roller drum at 30° C. Cells were pelleted by centrifugation and washed in sterile PBS three times. Cell density was determined by hemocytometer, and cells were diluted to 2×10^6 cells/mL. Mice (10 to 20 g) were infected with 10^5 cells of C. neoformans H99. […] Following inhalation of the inoculum, animals were monitored for post anesthesia recovery. […] Fungal burden was assessed 24 h after the final dose. […]

C. neoformans strain H99 [4] = experiment: Murine cryptococcal infection, brain fungal burden (Example 3); type: in vivo, Cryptococcus neoformans in A/J mice; conditions: 14 days; fluconazole 6 mg/kg, JH-FK-08 40 mg/kg, i.p. twice per day
Experimental: as §1, §2

C. neoformans strain H99 [5] = experiment: Histopathological analysis of lung tissue; type: in vivo, Cryptococcus neoformans in A/J mice; conditions: infected lung, PAS and H&E staining
[6] = In vivo tolerability of JH-FK-08; set-up: species or system mouse (A/J); conditions: 40 mg/kg once daily, 14 days
Experimental: FIG. 14: In vivo tolerability of JH-FK-08. Maximum tolerated dose study of female A/J mice (n=3). Animals received once daily (A) and twice daily (B) dosing, and weight over time was plotted as percent change from initial body weight.
Based on the in vitro fungal and mammalian calcineurin inhibition data, the panel of FK520 analogs was assessed and ranked. Therapeutic index (TI) scores were used to quantify the effects of structural modification on the compounds (Table 8). Therapeutic index scores were calculated for each analog as the ratio of relative change in immunosuppressive and antifungal activities compared to FK506 as previously utilized (see, I-Toy M J, et at. 2022. mBio 13:e0104922). This ratio of therapeutic benefit and host toxicity, or fungal and mammalian calcineurin inhibition, allowed us to quantify and rank these analogs. […] This is the greatest TI found within the library and allowed us to identify JH-FK-08 as a lead candidate for an in vivo study. Tolerability of JH-FK-08 was assessed by monitoring animal responses to drug dosing across 14 days, including changes in weight, fur condition, and behavior. A maximum dose of 40 mg/kg was tested in once a day dosing, and due to solubility limitations, the tolerability of JH-FK-08 at 60 and 80 mg/kg total daily doses was assessed by dosing two equal doses per day (FIG. 14). […]

| SMILES | blood brain barrier crossing [1] | effect on T cells [2] | spleen fungal burden (C. neoformans strain H99 [3]) | brain fungal burden (C. neoformans strain H99 [4]) | inflammatory response in lung tissue (C. neoformans strain H99 [5]) | tolerability ([6]; 60 and 80 mg/kg total daily in two equal doses) | weight difference from vehicle-treated animals ([6]; 60 and 80 mg/kg total daily) |
| --- | --- | --- | --- | --- | --- | --- | --- |
| C=CCC1C=C(C)CC(C)CC(OC)C2OC(O)(C(=O)C(=O)N3CCCCC3C(=O)OC(C(C)=CC3CCC(O)C(OC)C3)C(C)C(O)CC1=O)C(C)CC2OC (stereo not shown) [FK506, reference compound] | known to cross the blood brain barrier | cytotoxic and reduce the proliferation of T cells |  |  |  |  |  |
| CC[C@@H]1/C=C(\C)C[C@H](C)C[C@H](OC)[C@H]2O[C@@](O)(C(=O)C(=O)N3CCCC[C@H]3C(=O)O[C@H](/C(C)=C/C3CC[C@@H](O)[C@H](OC)C3)[C@H](C)[C@@H](O)C/C1=N/NC(=O)OC)[C@H](C)C[C@@H]2OC (stereo partly shown) [JH-FK-08] |  |  | no detectable fungal burden | no detectable fungal burden | expected granulomatous inflammatory response admixed with mature lymphocytes and neutrophils | Animals tolerated all dosages | ≤ 10% |
